Data on 5 molecules can be found in patent US4518711A, “Conformationally constrained cyclic enkephalin analogs with delta receptor specificity” (Gibson-Stephens Institute, priority 1983, dated 1985).

The structures appear in SMILES notation. Like-named read-outs stand apart in the source and are kept apart here. Where a SMILES comes first, the peptide text is derived from it. Bridges are numbered along the chain shown (N, C = ends). [ ]: non-standard residue; d: D form. dPen = CC(C)(S)[C@@H](N)C(=O)O

Experiment [1] concerns the target T1, mu receptors (rat brain membrane preparations) (Rattus norvegicus, UniProt P33535).
T1 construct: Whole brains with cerebellum removed were homogenized in 100 volumes of Tris-HCl buffer; from tissue; host or cells: rat whole brain (cerebellum removed) membrane homogenate
Put plainly: Rat brain binding assay, displacement of [3H]naloxone. (In general: Displacement assays read how much labelled ligand stays bound in the presence of the test substance.)

Experiment [2] addresses T2, delta type opiate receptors (mouse vas deferens preparation) (Mus musculus, UniProt P32300).
T2 construct: The mouse vas deferens was prepared following the method of Hughes et al; from tissue; host or cells: mouse vas deferens
Nature of the experiment: Mouse vas deferens (MVD) assay, inhibition of electrically stimulated contractions. The class given is cell-based. The note with it: for IC50 (GPI)/IC50 (MVD): delta receptor selectivity, GPI versus MVD. As to the method: These assays tested the degree of electrically stimulated contractions in the MVD and GPI tissues.
The mouse vas deferens was prepared following the method of Hughes et al. One pair of vasa deferentia was used in each experiment.

The target in experiment [3] is T3, delta receptors (rat brain membrane preparations) (Rattus norvegicus, UniProt P33533).
T3 construct: Whole brains with cerebellum removed were homogenized in 100 volumes of Tris-HCl buffer; from tissue; host or cells: rat whole brain (cerebellum removed) membrane homogenate
T3 sequence (P33533 whole entry): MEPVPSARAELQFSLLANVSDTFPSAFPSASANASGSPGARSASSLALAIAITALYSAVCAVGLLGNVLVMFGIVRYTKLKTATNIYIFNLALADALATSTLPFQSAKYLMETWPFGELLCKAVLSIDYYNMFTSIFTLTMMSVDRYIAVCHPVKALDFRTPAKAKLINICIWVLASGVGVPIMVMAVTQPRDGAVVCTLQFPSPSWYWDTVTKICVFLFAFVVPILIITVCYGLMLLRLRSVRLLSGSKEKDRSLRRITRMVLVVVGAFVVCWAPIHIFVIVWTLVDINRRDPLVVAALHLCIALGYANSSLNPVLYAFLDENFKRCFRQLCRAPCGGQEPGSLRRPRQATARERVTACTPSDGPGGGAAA
Nature of the experiment: Rat brain binding assay, displacement of [3H][D-Ala2, D-Leu5]enkephalin.

T2 sequence (P32300 whole entry): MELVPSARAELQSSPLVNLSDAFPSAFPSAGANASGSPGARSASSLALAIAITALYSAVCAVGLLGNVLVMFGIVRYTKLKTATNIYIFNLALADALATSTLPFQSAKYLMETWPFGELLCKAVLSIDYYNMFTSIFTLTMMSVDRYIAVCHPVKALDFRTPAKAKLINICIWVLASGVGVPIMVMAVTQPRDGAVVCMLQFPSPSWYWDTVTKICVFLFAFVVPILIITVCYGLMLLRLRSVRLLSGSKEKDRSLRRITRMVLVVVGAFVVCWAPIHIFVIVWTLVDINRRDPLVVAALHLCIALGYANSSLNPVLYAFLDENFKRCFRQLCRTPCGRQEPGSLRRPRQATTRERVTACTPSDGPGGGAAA
T1 sequence (P33535 whole entry): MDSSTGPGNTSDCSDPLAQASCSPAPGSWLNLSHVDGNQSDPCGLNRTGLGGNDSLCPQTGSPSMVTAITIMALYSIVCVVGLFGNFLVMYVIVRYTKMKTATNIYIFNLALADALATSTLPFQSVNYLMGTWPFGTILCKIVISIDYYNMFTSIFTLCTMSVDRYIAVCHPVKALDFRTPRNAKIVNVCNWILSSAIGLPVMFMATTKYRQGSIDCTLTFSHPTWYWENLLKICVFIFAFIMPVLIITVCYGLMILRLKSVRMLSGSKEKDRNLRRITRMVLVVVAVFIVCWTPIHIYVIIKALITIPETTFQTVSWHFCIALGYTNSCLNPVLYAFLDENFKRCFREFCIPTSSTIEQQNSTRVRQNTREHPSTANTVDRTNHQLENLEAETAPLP

Turning to `C[C@@H](O)[C@H](NC(=O)[C@@H]1CSSC(C)(C)[C@@H](NC(=O)[C@@H](N)Cc2ccc(O)cc2)C(=O)NCC(=O)N[C@@H](Cc2ccccc2)C(=O)N1)C(=O)O` (H-Y[dPen]GFCT-OH; disulfide 2-5), the IC50 is 146 nM in experiment [1], 0.6 nM in experiment [2] and 5.2 nM in experiment [3]. Also, in experiment [2], the “IC50 (GPI)/IC50 (MVD)” value came to 380. Also, in experiment [3] (delta receptor selectivity in rat brain binding), the “IC50 (NAL)/IC50 (DADLE)” value amounted to 28.2.

As to `Oc1ccc2c3c1O[C@H]1[C@@H](O)C=C[C@H]4[C@@H](C2)NCC[C@@]341` [Normorphine], the “IC50 (GPI)/IC50 (MVD)” value in experiment [2] came out at 0.17. Also, the IC50 in experiment [2] (electrically stimulated contractions, mouse vas deferens, read-out: IC50 (nM) MVD) is 540 nM.

Molecule `CSCC[C@H](NC(=O)[C@H](Cc1ccccc1)NC(=O)CNC(=O)[C@@H](C)NC(=O)[C@@H](N)Cc1ccc(O)cc1)C(N)=O` [[D-Ala^2, Met^5]Enkephalinamide, [D-Ala^2, Met^5]Enkephalinamide] came in with an IC50 in experiment [2] of 3.75 nM.

`CC(C)C[C@H](NC(=O)[C@H](Cc1ccccc1)NC(=O)CNC(=O)[C@@H](CO)NC(=O)[C@@H](N)Cc1ccc(O)cc1)C(=O)N[C@H](C(=O)O)[C@@H](C)O` [[D-Ser^2, Leu^5, Thr^6]Enkephalin, [D-Ser^2, Leu^5, Thr^6]enkephalin]: the IC50 in experiment [1] was determined as 88 ± 6 nM; in experiment [3] it was 5.73 nM.

For the molecule `CC(C)C[C@H](NC(=O)[C@H](Cc1ccccc1)NC(=O)CNC(=O)[C@H](NC(=O)[C@@H](N)Cc1ccc(O)cc1)[C@H](C)O)C(=O)N[C@H](C(=O)O)[C@@H](C)O` [[D-Thr^2, Leu^5, Thr^6]Enkephalin, [D-Thr^2, Leu^5, Thr^6]enkephalin], the IC50 worked out at 36.3 nM in experiment [1] and 6.4 nM in experiment [3].

The IC50 is the point on the concentration scale where inhibition reaches its midpoint.
